Laboratory results: patent US20140005163A1 (NOVARTIS AG, priority 2010, published 2014)

How the values were obtained:
mTOR = molecular target: T1, mTOR (Homo sapiens, UniProt P42345); experiment: Biochemical assay for m-TOR by TR-FRET; settings: 8 μM ATP, 400 nM GFP-4EBP1, 0.5 nM mTOR
T1 construct: purchased Invitrogen Corporation (Carlsbad/CA, USA) PV4753
Summary of the method: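 mTOR (0.5 nM final) phosphorylated GFP-4EBP1 (400 nM final) with ATP (8 μM final) at rt in 50 mM HEPES pH 7.5, 10 mM MnCl2, 50 mM NaCl, 1 mM EGTA, 1 mM DTT. EDTA stop with Tb3+-anti-p4EBP1 [pThr46] antibody (0.5 nM); TR-FRET read 15 min later.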

PI3K alpha = molecular target: T2, PI3K alpha (Homo sapiens, UniProt P42336); experiment: PI3K alpha kinase assay (Kinase-Glo luminescence); assay type: biochemical
T2 construct: p85(iSH2) fusion partner (see partner chain) (N); His tag (C); made in house; host or cells: baculovirus; Tn5 (Trichoplusia ni) or TiniPro insect cells
Summary of the method: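 PI3Kα construct EMV B1075 (10 nM final) was preincubated with 10 μg/mL phosphatidylinositol in 10 mM Tris-HCl pH 7.5, 3 mM MgCl2, 50 mM NaCl, 0.05% CHAPS, 1 mM DTT. Reaction started with 1 μM ATP, 60 min at room temperature; remaining ATP measured by Kinase-Glo luminescence. IC50 from 4-parameter logistic fit of 8-point titrations.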

PI3K delta = molecular target: T3, PI3K delta (Homo sapiens, UniProt O00329); experiment: PI3K delta kinase assay (Kinase-Glo luminescence); assay type: biochemical
T3 construct: for the full-length p110-d subunit are generated and fused by overlapping PCR; p85(iSH2) fusion partner (see partner chain) (N); His tag (C); made in house; host or cells: baculovirus; Tn5 (Trichoplusia ni) or TiniPro insect cells
Summary of the method: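 Recombinant p85(iSH2)-Gly linker-p110δ full-length construct (BV1060, C-terminal His tag) was used at 10 nM with 10 μg/mL phosphatidylinositol and 1 μM ATP in 10 mM Tris-HCl pH 7.5, 3 mM MgCl2, 50 mM NaCl, 0.05% CHAPS, 1 mM DTT. After 60 min at room temperature, remaining ATP was measured by Kinase-Glo luminescence.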

T3 sequence (O00329 with tags, fused parts or gaps limits assumed): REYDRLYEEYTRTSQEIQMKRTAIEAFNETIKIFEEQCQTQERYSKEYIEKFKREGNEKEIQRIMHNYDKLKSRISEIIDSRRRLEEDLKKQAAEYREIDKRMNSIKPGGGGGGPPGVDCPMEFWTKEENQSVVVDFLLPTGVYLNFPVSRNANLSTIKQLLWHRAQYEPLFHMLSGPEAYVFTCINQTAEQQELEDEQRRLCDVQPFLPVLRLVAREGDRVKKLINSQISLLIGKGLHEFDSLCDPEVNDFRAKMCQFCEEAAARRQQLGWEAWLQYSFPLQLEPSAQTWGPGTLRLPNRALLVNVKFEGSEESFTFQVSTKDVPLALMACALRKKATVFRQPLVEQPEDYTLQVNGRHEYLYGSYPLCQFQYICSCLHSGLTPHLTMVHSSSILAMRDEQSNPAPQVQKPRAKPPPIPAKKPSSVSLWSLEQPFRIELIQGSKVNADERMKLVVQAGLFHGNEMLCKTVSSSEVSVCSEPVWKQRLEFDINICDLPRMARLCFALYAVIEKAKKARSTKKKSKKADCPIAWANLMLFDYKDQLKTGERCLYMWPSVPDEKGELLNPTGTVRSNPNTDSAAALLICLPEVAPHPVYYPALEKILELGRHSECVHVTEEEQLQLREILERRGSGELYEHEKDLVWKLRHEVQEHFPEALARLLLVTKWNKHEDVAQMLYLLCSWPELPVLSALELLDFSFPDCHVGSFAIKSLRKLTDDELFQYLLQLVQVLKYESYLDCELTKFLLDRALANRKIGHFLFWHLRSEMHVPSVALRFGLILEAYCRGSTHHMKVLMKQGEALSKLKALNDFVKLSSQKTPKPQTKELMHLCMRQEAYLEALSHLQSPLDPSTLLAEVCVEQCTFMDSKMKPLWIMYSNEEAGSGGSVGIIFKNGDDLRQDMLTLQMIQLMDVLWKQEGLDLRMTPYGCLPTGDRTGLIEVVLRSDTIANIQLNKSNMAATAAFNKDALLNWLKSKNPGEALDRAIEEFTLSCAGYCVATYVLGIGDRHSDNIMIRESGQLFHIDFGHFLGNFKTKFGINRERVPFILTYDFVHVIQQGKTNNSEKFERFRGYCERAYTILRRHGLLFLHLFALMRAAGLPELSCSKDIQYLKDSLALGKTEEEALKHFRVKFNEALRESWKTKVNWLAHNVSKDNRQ
T1 sequence (P42345 1360-2549 limits assumed): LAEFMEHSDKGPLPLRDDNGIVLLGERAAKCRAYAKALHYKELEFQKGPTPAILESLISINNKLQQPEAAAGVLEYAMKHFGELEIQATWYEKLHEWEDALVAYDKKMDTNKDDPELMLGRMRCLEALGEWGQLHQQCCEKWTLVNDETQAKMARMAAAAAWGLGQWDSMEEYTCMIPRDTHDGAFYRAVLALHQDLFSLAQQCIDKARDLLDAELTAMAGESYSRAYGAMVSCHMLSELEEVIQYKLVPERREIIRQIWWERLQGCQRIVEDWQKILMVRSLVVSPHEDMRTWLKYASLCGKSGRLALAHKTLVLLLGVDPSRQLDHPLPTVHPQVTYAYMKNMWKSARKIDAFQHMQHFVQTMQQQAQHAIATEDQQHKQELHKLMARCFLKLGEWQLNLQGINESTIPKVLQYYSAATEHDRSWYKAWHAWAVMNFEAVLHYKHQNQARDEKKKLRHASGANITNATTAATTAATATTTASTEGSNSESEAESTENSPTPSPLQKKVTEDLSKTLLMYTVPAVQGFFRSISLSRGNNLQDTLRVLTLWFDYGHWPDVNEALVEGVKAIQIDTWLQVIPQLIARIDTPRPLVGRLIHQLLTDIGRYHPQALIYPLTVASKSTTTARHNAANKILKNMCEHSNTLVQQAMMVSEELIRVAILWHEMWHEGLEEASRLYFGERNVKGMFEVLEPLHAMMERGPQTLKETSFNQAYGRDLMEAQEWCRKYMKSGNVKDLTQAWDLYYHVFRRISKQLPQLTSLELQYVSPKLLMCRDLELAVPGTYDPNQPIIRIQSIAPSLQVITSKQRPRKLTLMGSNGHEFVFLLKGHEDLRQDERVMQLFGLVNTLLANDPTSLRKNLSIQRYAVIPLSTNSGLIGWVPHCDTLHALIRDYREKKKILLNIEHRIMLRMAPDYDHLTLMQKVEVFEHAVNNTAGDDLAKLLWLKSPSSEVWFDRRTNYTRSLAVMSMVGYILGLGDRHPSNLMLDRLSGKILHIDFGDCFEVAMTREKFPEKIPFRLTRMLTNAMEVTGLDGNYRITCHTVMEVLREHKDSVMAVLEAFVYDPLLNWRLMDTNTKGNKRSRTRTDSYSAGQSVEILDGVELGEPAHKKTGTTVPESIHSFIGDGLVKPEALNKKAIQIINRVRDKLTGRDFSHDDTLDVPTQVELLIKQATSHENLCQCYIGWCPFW
T2 sequence (P42336 with tags, fused parts or gaps limits assumed): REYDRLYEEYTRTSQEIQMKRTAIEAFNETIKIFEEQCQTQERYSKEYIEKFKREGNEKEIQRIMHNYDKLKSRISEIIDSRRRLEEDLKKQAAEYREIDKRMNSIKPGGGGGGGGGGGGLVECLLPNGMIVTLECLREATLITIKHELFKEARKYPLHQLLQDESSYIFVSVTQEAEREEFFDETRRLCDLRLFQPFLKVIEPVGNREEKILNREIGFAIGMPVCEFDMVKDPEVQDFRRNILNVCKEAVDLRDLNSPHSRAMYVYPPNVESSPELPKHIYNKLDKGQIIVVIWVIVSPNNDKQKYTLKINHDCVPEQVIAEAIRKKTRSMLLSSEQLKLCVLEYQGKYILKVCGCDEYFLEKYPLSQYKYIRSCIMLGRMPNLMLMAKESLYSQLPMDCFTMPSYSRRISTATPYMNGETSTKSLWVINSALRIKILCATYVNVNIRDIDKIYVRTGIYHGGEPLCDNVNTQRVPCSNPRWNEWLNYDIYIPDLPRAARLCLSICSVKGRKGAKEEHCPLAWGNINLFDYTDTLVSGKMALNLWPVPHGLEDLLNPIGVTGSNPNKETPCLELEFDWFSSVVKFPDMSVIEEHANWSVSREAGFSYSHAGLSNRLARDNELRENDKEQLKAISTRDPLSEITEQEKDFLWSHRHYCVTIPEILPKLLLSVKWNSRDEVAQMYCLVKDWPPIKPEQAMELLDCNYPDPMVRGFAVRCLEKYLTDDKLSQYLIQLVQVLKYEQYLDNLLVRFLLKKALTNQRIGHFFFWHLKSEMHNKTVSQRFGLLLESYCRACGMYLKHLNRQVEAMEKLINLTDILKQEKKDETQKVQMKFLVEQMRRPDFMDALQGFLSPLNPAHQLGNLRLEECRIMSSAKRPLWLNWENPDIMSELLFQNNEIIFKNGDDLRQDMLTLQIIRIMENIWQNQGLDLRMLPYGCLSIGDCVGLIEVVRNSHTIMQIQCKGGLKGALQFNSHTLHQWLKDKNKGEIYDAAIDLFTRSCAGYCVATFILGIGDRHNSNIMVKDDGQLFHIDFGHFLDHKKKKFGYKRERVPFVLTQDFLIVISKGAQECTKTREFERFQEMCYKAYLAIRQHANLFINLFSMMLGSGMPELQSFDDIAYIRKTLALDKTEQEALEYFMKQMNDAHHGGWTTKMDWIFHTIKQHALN

Row | IC50 (mTOR) | IC50 (PI3K alpha) | IC50 (PI3K delta) | Compound
1 | 376 nM | 104 nM | 127 nM | Cc1nn(C)cc1-n1c(=O)n(C)c2cnc3ccc(-c4ccnc(OC(C)C)c4)cc3c21 [Example 92, 1-(1,3-Dimethyl-1H-pyrazol-4-yl)-8-(2-isopropoxy-pyridin-4-yl)-3-methyl-1,3-dihydro-imidazo[4,5-c]quinolin-2-one]
2 | 15 nM | 12 nM | 16 nM | Cc1nn(C)cc1-n1c(=O)n(C)c2cnc3ccc(-c4cnc5c(ccn5C)c4)cc3c21 [Example 116, 1-(1,3-Dimethyl-1H-pyrazol-4-yl)-3-methyl-8-(1-methyl-1H-pyrrolo[2,3-b]pyridin-5-yl)-1,3-dihydro-imidazo[4,5-c]quinolin-2-one]
3 | < 3 nM | 39 nM | 33 nM | Cc1nn(C)cc1-n1c(=O)n(C)c2cnc3ccc(-c4cncc(NC5CCC5)c4)cc3c21 [Example 172, 8-(5-Cyclobutylamino-pyridin-3-yl)-1-(1,3-dimethyl-1H-pyrazol-4-yl)-3-methyl-1,3-dihydro-imidazo[4,5-c]quinolin-2-one]
4 | 651 nM | 146 nM | 148 nM | CCOc1ccc(-c2ccc3ncc4c(c3c2)n(-c2c(C)nn(C)c2C)c(=O)n4C)cn1 [Example 3.3, 8-(6-Ethoxy-pyridin-3-yl)-3-methyl-1-(1,3,5-trimethyl-1H-pyrazol-4-yl)-1,3-dihydro-imidazo[4,5-c]quinolin-2-one]
5 | 11 nM | 12 nM | 19 nM | COc1ccc(-c2ccc3ncc4[nH]c(=O)n(-c5cn(C)nc5C)c4c3c2)cn1 [Example 109, 1-(1,3-Dimethyl-1H-pyrazol-4-yl)-8-(6-methoxy-pyridin-3-yl)-1,3-dihydro-imidazo[4,5-c]quinolin-2-one]
6 | 60 nM | 132 nM | 556 nM | Cc1nn(C)cc1-n1c(=O)n(C)c2cnc3ccc(-c4ccc(OCCCO)nc4)cc3c21 [Example 108, 1-(1,3-Dimethyl-1H-pyrazol-4-yl)-8-[6-(3-hydroxy-propoxy)-pyridin-3-yl]-3-methyl-1,3-dihydro-imidazo[4,5-c]quinolin-2-one]
7 | 6 nM | < 3 nM | 5 nM | Cc1nn(C)cc1-n1c(=O)n(C)c2cnc3ccc(-c4cnc(CO)c(OC(CF)CF)c4)cc3c21 [Example 192, 1-(1,3-Dimethyl-1H-pyrazol-4-yl)-8-[5-(2-fluoro-1-fluoromethyl-ethoxy)-6-hydroxymethyl-pyridin-3-yl]-3-methyl-1,3-dihydro-imidazo[4,5-c]quinolin-2-one]
8 | 149 nM | 34 nM | 27 nM | Cc1nn(C)c(C)c1-n1c(=O)n(C)c2cnc3ccc(-c4cnc(N)c(CO)c4)cc3c21 [Example 169.2, 8-(6-Amino-5-hydroxymethyl-pyridin-3-yl)-3-methyl-1-(1,3,5-trimethyl-1H-pyrazol-4-yl)-1,3-dihydro-imidazo[4,5-c]quinolin-2-one]
9 | 566 nM | 236 nM | 118 nM | Cc1cnn(C)c1-n1c(=O)n(C)c2cnc3ccc(-c4cncc(OC(C)C)c4)cc3c21 [Example 58.3, 1-(2,4-Dimethyl-2H-pyrazol-3-yl)-8-(5-isopropoxy-pyridin-3-yl)-3-methyl-1,3-dihydro-imidazo[4,5-c]quinolin-2-one]
